Data on 30 compounds can be found in ChEMBL document CHEMBL5137051 (Eur J Med Chem, 2022).

One assay concerns A549. Kind of assay: Antiproliferative activity against human A549 cells assessed as cell viability after 72 hrs by MTT assay. Type of assay: functional, cell-based. The following applies: A549, 72 h.
Assay [1] deals with Epidermal growth factor receptor (Homo sapiens), P00533 [L858R,T790M,C797S]. The following applies: dose 300.0 nM.
Another assay deals with NCI-H1975. Kind of assay: Antiproliferative activity against human H1975 cells assessed as cell viability after 72 hrs by MTT assay. Conditions: NCI-H1975, 72 h. Format: functional, cell-based. On the technique in general: Tetrazolium dyes change colour on reduction, which living cells bring about.
Assay [2] addresses Hepatocyte growth factor receptor (Homo sapiens, UniProt P08581). Kind of assay: Inhibition of c-Met (unknown origin) by mobility shift assay.
Assay [3] has as its target Epidermal growth factor receptor (Homo sapiens, UniProt P00533, L858R/T790M). Kind of assay: Inhibition of EGFR L858R/T790M mutant (unknown origin) by mobility shift assay.
The target of assay [4] is Epidermal growth factor receptor (Homo sapiens, UniProt P00533). Briefly: Inhibition of wild type EGFR (unknown origin) by mobility shift assay.
Chain of Epidermal growth factor receptor (Homo sapiens, UniProt P00533) (P00533 whole entry): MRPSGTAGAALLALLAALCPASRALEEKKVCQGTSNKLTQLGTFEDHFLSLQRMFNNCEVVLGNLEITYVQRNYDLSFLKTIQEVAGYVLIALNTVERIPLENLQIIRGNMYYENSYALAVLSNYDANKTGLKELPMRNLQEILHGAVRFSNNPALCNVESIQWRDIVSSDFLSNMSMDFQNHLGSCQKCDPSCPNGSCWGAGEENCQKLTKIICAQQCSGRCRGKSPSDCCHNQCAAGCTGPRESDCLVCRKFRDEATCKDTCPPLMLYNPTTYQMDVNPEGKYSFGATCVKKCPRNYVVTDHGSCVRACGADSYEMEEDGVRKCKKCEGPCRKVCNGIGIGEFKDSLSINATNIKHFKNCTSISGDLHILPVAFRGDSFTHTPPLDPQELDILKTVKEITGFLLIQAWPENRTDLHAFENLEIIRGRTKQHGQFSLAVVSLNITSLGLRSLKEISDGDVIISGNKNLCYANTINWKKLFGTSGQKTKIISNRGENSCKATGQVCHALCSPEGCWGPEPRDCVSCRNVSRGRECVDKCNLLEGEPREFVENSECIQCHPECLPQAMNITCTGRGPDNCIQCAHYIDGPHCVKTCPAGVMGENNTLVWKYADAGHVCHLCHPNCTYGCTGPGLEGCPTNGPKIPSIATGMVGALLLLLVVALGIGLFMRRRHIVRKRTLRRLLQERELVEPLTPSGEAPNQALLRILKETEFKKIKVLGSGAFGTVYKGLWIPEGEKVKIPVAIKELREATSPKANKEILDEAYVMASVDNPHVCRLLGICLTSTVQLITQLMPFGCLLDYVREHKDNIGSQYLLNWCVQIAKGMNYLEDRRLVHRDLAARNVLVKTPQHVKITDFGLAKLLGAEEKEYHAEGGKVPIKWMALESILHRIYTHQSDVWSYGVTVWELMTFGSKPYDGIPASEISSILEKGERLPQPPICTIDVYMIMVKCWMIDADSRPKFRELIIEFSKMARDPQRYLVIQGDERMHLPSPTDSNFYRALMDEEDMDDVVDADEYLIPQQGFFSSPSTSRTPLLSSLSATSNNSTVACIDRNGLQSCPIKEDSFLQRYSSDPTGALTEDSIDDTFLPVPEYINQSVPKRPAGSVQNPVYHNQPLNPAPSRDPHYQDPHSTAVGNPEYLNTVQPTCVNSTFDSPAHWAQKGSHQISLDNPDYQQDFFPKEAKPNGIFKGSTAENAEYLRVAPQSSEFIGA
For assay [5], the target named is Epidermal growth factor receptor (Homo sapiens, UniProt P00533, C797S/L858R/T790M). Briefly: Inhibition of EGFR L858R/T790M/C797S mutant (unknown origin) by mobility shift assay.
Chain of Epidermal growth factor receptor (Homo sapiens, UniProt P00533, C797S/L858R/T790M) (P00533 25-1210 T790M/C797S/L858R limits assumed): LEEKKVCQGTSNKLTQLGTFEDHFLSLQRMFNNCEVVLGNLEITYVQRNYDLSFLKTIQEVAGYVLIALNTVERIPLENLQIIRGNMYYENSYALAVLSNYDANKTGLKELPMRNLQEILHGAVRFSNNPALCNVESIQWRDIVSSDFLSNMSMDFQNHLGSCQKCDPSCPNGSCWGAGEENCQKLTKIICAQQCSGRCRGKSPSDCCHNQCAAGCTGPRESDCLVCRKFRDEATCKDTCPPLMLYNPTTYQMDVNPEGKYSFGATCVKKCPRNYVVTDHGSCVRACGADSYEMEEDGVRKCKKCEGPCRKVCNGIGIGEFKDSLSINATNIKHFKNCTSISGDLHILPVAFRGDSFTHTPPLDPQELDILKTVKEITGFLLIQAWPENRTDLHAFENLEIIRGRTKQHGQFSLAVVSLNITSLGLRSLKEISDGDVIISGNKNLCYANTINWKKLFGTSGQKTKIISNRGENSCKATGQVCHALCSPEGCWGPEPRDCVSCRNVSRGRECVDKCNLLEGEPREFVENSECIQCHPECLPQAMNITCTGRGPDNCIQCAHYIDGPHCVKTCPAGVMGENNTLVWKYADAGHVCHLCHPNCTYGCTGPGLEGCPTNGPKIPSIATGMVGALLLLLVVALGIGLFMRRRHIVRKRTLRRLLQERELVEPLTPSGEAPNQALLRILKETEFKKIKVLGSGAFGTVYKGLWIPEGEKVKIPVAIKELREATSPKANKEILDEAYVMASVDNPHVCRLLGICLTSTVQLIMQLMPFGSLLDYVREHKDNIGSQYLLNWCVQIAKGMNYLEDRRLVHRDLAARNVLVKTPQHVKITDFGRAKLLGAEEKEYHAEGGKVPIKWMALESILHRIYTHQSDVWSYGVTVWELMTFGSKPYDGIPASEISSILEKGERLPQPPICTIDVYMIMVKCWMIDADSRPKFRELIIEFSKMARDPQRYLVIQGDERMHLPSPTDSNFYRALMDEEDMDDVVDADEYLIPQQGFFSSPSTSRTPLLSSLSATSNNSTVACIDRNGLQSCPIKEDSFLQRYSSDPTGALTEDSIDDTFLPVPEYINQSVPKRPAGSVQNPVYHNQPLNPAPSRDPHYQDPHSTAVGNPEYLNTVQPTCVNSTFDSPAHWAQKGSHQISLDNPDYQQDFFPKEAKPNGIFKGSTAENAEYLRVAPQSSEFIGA

The structures appear in SMILES notation. A value given as a limit tells only on which side of the number the result lay.

Chain of Epidermal growth factor receptor (Homo sapiens), P00533 [L858R,T790M,C797S] (P00533 whole entry T790M/C797S/L858R): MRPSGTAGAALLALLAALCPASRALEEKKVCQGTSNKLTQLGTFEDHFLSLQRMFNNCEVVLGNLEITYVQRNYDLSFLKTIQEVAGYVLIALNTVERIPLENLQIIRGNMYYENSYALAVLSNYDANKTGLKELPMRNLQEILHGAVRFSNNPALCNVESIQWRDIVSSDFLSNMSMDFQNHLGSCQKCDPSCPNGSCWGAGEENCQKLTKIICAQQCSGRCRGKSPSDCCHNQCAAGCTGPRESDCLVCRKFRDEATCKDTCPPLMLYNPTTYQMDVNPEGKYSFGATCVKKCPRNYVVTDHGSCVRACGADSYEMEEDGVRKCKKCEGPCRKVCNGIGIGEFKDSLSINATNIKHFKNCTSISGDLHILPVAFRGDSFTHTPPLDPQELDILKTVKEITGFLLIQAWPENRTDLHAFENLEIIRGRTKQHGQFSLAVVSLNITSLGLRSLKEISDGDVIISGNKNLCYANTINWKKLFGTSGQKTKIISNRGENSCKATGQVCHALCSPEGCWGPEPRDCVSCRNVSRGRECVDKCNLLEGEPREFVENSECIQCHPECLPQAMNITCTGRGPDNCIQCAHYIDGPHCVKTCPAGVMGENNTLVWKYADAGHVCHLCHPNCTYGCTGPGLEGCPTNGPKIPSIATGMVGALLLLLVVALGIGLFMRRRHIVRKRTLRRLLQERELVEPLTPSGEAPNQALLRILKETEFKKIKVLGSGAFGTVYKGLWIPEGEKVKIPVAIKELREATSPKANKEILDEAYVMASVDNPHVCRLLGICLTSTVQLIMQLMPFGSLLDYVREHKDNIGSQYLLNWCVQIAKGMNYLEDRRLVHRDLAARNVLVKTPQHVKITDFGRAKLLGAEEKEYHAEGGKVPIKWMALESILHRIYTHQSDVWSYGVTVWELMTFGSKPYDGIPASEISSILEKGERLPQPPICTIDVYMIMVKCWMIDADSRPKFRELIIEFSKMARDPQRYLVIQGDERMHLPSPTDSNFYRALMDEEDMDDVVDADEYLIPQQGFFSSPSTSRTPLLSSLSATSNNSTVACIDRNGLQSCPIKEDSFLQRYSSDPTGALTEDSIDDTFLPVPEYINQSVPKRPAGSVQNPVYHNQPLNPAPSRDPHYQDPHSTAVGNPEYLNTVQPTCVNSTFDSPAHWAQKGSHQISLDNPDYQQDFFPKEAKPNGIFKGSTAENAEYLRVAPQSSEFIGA
Chain of Epidermal growth factor receptor (Homo sapiens, UniProt P00533, L858R/T790M) (P00533 25-1210 T790M/L858R limits assumed): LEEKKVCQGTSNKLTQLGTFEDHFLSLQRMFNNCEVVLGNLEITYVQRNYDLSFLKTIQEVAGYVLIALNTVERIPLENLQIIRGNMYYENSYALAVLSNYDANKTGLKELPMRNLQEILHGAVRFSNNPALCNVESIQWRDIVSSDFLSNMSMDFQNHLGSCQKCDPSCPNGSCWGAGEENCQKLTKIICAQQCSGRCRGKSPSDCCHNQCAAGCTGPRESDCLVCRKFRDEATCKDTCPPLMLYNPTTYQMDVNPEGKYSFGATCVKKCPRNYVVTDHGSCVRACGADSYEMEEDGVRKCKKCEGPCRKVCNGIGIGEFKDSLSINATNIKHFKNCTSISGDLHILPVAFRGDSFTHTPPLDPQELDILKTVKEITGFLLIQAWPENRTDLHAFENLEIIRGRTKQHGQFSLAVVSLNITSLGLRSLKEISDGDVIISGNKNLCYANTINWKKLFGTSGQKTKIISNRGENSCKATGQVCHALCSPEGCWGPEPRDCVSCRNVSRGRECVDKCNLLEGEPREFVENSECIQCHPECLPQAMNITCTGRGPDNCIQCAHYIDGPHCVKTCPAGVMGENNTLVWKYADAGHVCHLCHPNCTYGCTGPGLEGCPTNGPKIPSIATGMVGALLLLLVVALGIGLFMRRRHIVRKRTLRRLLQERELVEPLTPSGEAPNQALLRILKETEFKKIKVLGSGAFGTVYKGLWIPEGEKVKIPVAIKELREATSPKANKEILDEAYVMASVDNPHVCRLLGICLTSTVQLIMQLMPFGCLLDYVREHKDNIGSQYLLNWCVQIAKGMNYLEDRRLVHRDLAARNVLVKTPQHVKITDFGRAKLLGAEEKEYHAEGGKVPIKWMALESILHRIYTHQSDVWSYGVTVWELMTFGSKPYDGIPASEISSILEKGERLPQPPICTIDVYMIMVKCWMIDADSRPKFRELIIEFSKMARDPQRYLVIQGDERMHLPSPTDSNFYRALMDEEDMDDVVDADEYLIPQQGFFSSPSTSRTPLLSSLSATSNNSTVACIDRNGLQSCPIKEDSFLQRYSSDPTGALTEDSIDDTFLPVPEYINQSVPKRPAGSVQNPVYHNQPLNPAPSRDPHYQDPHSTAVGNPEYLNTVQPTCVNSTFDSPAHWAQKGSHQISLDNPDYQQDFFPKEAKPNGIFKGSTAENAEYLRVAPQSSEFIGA

For orientation: IC50 means the concentration that inhibits the measured activity by half. In general, inhibition refers to the drop in the measured response relative to a control, in per cent. For the compound `COc1cc(N(C)CCN(C)C)c(NC(=O)c2ccncc2OC)cc1Nc1nccc(-c2cn(CCCO)c3ccccc23)n1`, the half-inhibitory concentration (IC50) is 2.39 µM with A549 and 1.97 µM in the assay with NCI-H1975. The inhibition in assay [1] amounted to 49.5%.
`COc1cc(N(C)C)c(NC(=O)c2nccn2C)cc1Nc1nccc(-c2cn(C)c3ccccc23)n1`: the IC50 with A549 was 10.2 µM; in the assay with NCI-H1975 it was 2.88 µM. For the same compound, the inhibition in assay [1] turned out to be 12.1%.
As to `COc1cc(N(C)CCN(C)C)c(NC(=O)c2nccn2C)cc1Nc1nccc(-c2cn(C)c3ccccc23)n1`, the concentration for half-maximal inhibition (IC50) with A549 was 2.55 µM; in assay [2] it was more than 1 µM; in the assay on NCI-H1975, 3.32 µM.
With `COc1ccc(C(=O)Nc2cc(Nc3nc(-c4cn(C)c5ccccc45)c4cccnc4n3)c(OC)cc2N(C)CCN(C)C)nc1`, the IC50 with A549 amounted to 4.23 µM; with NCI-H1975, 1.16 µM. Moreover, the inhibition in assay [1] was 12.8%.
`COc1ccc(C(=O)Nc2cc(Nc3nccc(-c4cn(C)c5ccccc45)n3)c(OC)cc2F)nc1`: the IC50 was found to be 8.2 µM with A549 and 16.8 µM in the assay on NCI-H1975. Further, in assay [1], the inhibition came to 1.5%.
Consider `COc1cc(N(C)CCN(C)C)c(NC(=O)c2cnccn2)cc1Nc1nc(-c2cn(C)c3ccccc23)c2ccccc2n1`, for which the IC50 in the assay with A549 came out at 10.1 µM; with NCI-H1975, 16.3 µM. The inhibition in assay [1] was -9.4%.
The corresponding values for `COc1cc(F)c(NC(=O)c2ccnc(O)c2)cc1Nc1nccc(-c2cn(C)c3ccccc23)n1` are 11.7 µM, 5.92 µM and 10.6%.
On to `COc1cc(N(C)C)c(NC(=O)c2c[nH]cn2)cc1Nc1nccc(-c2cn(C)c3ccccc23)n1`, for which the IC50 with A549 was 3.56 µM; in the assay on NCI-H1975, 3.12 µM. Besides, in assay [1], the inhibition was 24.7%.
Take `COc1cc(N(C)CCN(C)C)c(NC(=O)c2ccncn2)cc1Nc1nc(-c2cn(C)c3ccccc23)c2cccnc2n1`: the half-maximal inhibitory concentration (IC50) in the assay on A549 is 4.52 µM; in assay [2], more than 1 µM; in the assay on NCI-H1975 it was 1.09 µM; in assay [3], more than 0.5 µM; in assay [4], 0.36 µM; in assay [5], more than 0.5 µM. Further, the inhibition in assay [1] worked out at 22.3%.
In the case of `COc1cc(N(C)CCN(C)C)c(NC(=O)c2ccnc(O)c2)cc1Nc1nccc(-c2cn(C)c3ccccc23)n1`, the IC50 in the assay with A549 was 11.2 µM; in assay [2], more than 1 µM; with NCI-H1975, 12 µM; in assay [3], more than 0.5 µM; in assay [4], more than 0.5 µM; in assay [5] it was more than 0.5 µM. Also, in assay [1], the inhibition came out at 38.1%.
Take `COc1cc(N(C)C)c(NC(=O)c2ccncn2)cc1Nc1nccc(-c2cn(C)c3ccccc23)n1`: the IC50 in the assay with A549 was 5.16 µM; in the assay on NCI-H1975, 1.25 µM. Moreover, the inhibition in assay [1] turned out to be 8.8%.
As to `COc1ccc(C(=O)Nc2cc(Nc3nccc(-c4cn(C)c5ccccc45)n3)c(OC)cc2N(C)CCN(C)C)nc1`, the half-maximal inhibitory concentration (IC50) with A549 is 5.23 µM; in assay [2], more than 1 µM; with NCI-H1975, 4.23 µM.
In the case of `COc1cc(F)c(NC(=O)c2nccn2C)cc1Nc1nccc(-c2cn(C)c3ccccc23)n1`, the IC50 was 5.14 µM with A549 and 10.6 µM in the assay on NCI-H1975. Also, the inhibition in assay [1] was 7.7%.
Taken in the same sequence, the figures for `COc1cc(F)c(NC(=O)c2ncccn2)cc1Nc1nccc(-c2cn(C)c3ccccc23)n1` were 8.4 µM, 13.5 µM and 9.6%.
As for `COc1cc(F)c(NC(=O)c2cnccn2)cc1Nc1nccc(-c2cn(C)c3ccccc23)n1`, the results for the half-inhibitory concentration (IC50) in the assay with A549 and in the assay on NCI-H1975 were 2.49 µM and 24.8 µM, respectively. Also, the inhibition in assay [1] turned out to be 9.7%.
The corresponding values for `COc1cc(F)c(NC(=O)c2ccnc(Cl)c2)cc1Nc1nccc(-c2cn(C)c3ccccc23)n1` are 6.89 µM, 4.33 µM and 9.6%.
As to `COc1cc(N(C)CCN(C)C)c(NC(=O)c2ccncc2)cc1Nc1nccc(-c2cn(C)c3ccccc23)n1`, the concentration for half-maximal inhibition (IC50) in the assay with A549 is 10.4 µM; in assay [2] it was more than 1 µM; in the assay on NCI-H1975 it was 6.86 µM; in assay [3], 0.391 µM; in assay [4] it was more than 0.5 µM; in assay [5] it was more than 0.5 µM. For the same compound, in assay [1], the inhibition was determined as 24%.
For the compound `COc1cc(N(C)CCN(C)C)c(NC(=O)c2cccnc2)cc1Nc1nccc(-c2cn(C)c3ccccc23)n1`, the IC50 with A549 was 1.6 µM; in assay [2], more than 1 µM; in the assay with NCI-H1975 it was 1.75 µM; in assay [3] it was 0.36 µM; in assay [4], more than 0.5 µM; in assay [5] it was more than 0.5 µM. The inhibition in assay [1] amounted to 41.6%.
Take `COc1cc(F)c(NC(=O)c2ccccn2)cc1Nc1nccc(-c2cn(C)c3ccccc23)n1`: the IC50 with A549 was 7.98 µM; in the assay on NCI-H1975 it was 16.5 µM. Further, the inhibition in assay [1] is -1.4%.
For the compound `COc1cc(N(C)CCN(C)C)c(NC(=O)c2cnccn2)cc1Nc1nccc(-c2cn(C)c3ccccc23)n1`, the IC50 was 4.33 µM in the assay on A549; more than 1 µM in assay [2]; 1.22 µM in the assay on NCI-H1975; 0.017 µM in assay [3]; 0.224 µM in assay [4]; more than 0.5 µM in assay [5]. Moreover, the inhibition in assay [1] stood at 38.2%.
With `COc1cc(N(C)C)c(NC(=O)c2ccnc(Cl)n2)cc1Nc1nccc(-c2cn(C)c3ccccc23)n1`, the values for the IC50 in the assay with A549 and with NCI-H1975 were 2.84 µM and 3.66 µM, respectively. In addition, in assay [1], the inhibition was -1.8%.
For the compound `COc1cc(N(C)C)c(NC(=O)c2ccncc2)cc1Nc1nccc(-c2cn(C)c3ccccc23)n1`, the half-inhibitory concentration (IC50) came to 9 µM in the assay with A549 and 1.47 µM in the assay on NCI-H1975. Also, the inhibition in assay [1] was found to be 18.1%.
For `C=CC(=O)Nc1cc(Nc2nccc(-c3cn(C)c4ccccc34)n2)c(OC)cc1N(C)CCN(C)C` [OSIMERTINIB], the results for the IC50 (with A549; in assay [2]; in the assay on NCI-H1975) were 1.87 µM, more than 1 µM and […], respectively.
As for `COc1ccc(C(=O)Nc2cc(Nc3nccc(-c4cn(C)c5ccccc45)n3)c(OC)cc2N(C)C)nc1`, the IC50 in the assay on A549 stood at 5.15 µM; in the assay on NCI-H1975 it was 2.13 µM. The inhibition in assay [1] amounted to 1.2%.
For `COc1cc(N(C)C)c(NC(=O)c2ccccn2)cc1Nc1nccc(-c2cn(C)c3ccccc23)n1`, the half-inhibitory concentration (IC50) was 8.29 µM in the assay with A549 and 10.3 µM in the assay on NCI-H1975. For the same compound, the inhibition in assay [1] was found to be 10.5%.
Taken in the same sequence, the figures for `COc1cc(N(C)C)c(NC(=O)c2ncccn2)cc1Nc1nccc(-c2cn(C)c3ccccc23)n1` were 8.64 µM, 5.4 µM and 7.4%.
The corresponding values for `COc1cc(F)c(NC(=O)c2ccncc2OC)cc1Nc1nccc(-c2cn(C)c3ccccc23)n1` are 3.43 µM, 4.12 µM and 2.2%.
In the case of `COc1cc(N(C)C)c(NC(=O)c2ccncc2OC)cc1Nc1nccc(-c2cn(C)c3ccccc23)n1`, the results for the IC50 with A549 and in the assay on NCI-H1975 were 3.03 µM and 12.1 µM, respectively. The inhibition in assay [1] was found to be 7.9%.
The corresponding values for `COc1cc(N(C)C)c(NC(=O)c2ccnc(Cl)c2)cc1Nc1nccc(-c2cn(C)c3ccccc23)n1` are 3.43 µM, 9.2 µM and 9.4%.
Turning to `COc1cc(F)c(NC(=O)c2ccncc2)cc1Nc1nccc(-c2cn(C)c3ccccc23)n1`, the concentration for half-maximal inhibition (IC50) stood at 4.2 µM with A549 and 4.37 µM in the assay on NCI-H1975. Moreover, in assay [1], the inhibition came to 15.5%.
